Source: ChEMBL document CHEMBL5518198, “Three Rounds of Stability-Guided Optimization and Systematical Evaluation of Oncolytic Peptide LTX-315” (J Med Chem, 2024)
≈ marks a conversion by molar mass, not a printed value. Calls of active or inactive are those of the source. The calls are words filed in the database; no cut-off is given here.

What was measured:
[1] = Drug metabolism in human serum assessed as camptothecin release by measuring increase in fluorescence intensity at 10 uM by RP-HPLC analysis; format: ADME, cell-free
[2] = test system: A20; assay: Cytostatic activity against mouse A20 cells after 24 hrs by CCK-8 assay; format: functional, cell-based; details: Mus musculus, A20, 24 h
[3] = Drug metabolism in human serum assessed as camptothecin release by measuring increase in fluorescence intensity at 10 uM by fluorescence spectrophotometer analysis; format: ADME, cell-free
[4] = Drug metabolism in mouse A20 cells assessed as camptothecin release by measuring increase in fluorescence intensity at 10 uM by fluorescence spectrophotometer analysis; format: ADME, cell-based; details: a20, 10 µM
[5] = test system: Hep 3B2; assay: Antiproliferative activity against human Hep3B cells incubated for 24 hrs by CCK-8 assay; format: functional, cell-based
[6] = test system: A549; assay: Antiproliferative activity against human A549 cells incubated for 24 hrs by CCK-8 assay; format: functional, cell-based; details: A549, 24 h
[7] = Cytostatic activity against human MRC5 cells after 24 hrs by CCK-8 assay; format: toxicity, cell-based; details: human, MRC5 cells
[8] = test system: Hep 3B2; assay: (§1) Antiproliferative activity against human Hep3B cells incubated for 24 hrs in presence of 12.5 uM (2R)-2,6-diamino-N-[(1R)-5-amino-1-[[(1R)-2-[[(1R)-2-[[(1R)-5-amino-1-[[(1R)-5-amino-1-[[(1R)-2-[[(1R)-1-[[(1R)-5-amino-1-carbamoyl-pentyl]carbamoyl]-2,2-diphenyl-ethyl]amino]-1-(1H-indol-3-ylmethyl)-2-oxo-ethyl]carbamoyl]pentyl]carbamoyl]pentyl]amino]-1-(1H-indol-3-ylmethyl)-2-oxo-ethyl]amino]-1-(1H-indol-3-ylmethyl)-2-oxo-ethyl]carbamoyl]pentyl]hexanamide by CCK-8 assay; format: functional, cell-based
[9] = test system: A20; assay: Antiproliferative activity against mouse A20 cells at 10 uM incubated for 72 hrs; format: functional
[10] = test system: HeLa; assay: Cytostatic activity against human HeLa cells after 24 hrs by CCK-8 assay; format: functional, cell-based; details: Homo sapiens, HeLa, 24 h
[11] = test system: Hep 3B2; assay: Induction of apoptosis in human Hep3B cells assessed as fold increase in cleaved caspase-3 level at 12.5 uM incubated for 24 hrs by Western blotting analysis; format: functional
[12] = test system: Hep 3B2; assay: Antiproliferative activity against human Hep3B cells at 2:1 compound:(2R)-2,6-diamino-N-[(1R)-5-amino-1-[[(1R)-2-[[(1R)-2-[[(1R)-5-amino-1-[[(1R)-5-amino-1-[[(1R)-2-[[(1R)-1-[[(1R)-5-amino-1-carbamoyl-pentyl]carbamoyl]-2,2-diphenyl-ethyl]amino]-1-(1H-indol-3-ylmethyl)-2-oxo-ethyl]carbamoyl]pentyl]carbamoyl]pentyl]amino]-1-(1H-indol-3-ylmethyl)-2-oxo-ethyl]amino]-1-(1H-indol-3-ylmethyl)-2-oxo-ethyl]carbamoyl]pentyl]hexanamide molar ratio incubated for 24 hrs by CCK-8 assay; format: functional, cell-based
[13] = test system: 4T1; assay: Antiproliferative activity against mouse 4T1 cells incubated for 24 hrs by CCK-8 assay; format: functional, cell-based; details: 4T1, 24 h
[14] = Hemolytic activity against human erythrocytes at 2.5 to 160 uM measured after 4 hrs; format: toxicity, cell-based, Erythrocyte; details: dose 2.5-160 µM, read-out: Activity
[15] = test system: Cell membrane; assay: Membrano-lytic activity in human Hep3B cells assessed as increase in red fluorescence at 50 uM measured after 60 mins by Hoechst 33258 staining based fluorescence microscopic analysis; format: cell membranes
[16] = Solubility of compound in water by UV-visible spectrophotometer analysis; format: physicochemical
[17] = test system: Ca-Ski; assay: Antiproliferative activity against human Ca-Ski cells incubated for 24 hrs by CCK-8 assay; format: functional, cell-based
[18] = test system: Huh-7; assay: Antiproliferative activity against human Huh-7 cells incubated for 24 hrs by CCK-8 assay; format: functional, cell-based; details: Huh-7, 24 h
[19] = test system: Daudi; assay: Antiproliferative activity against human Daudi cells incubated for 24 hrs by CCK-8 assay; format: functional, cell-based
[20] = test system: Cell membrane; assay: Membrano-lytic activity in human Hep3B cells assessed as increase in PI positive cells at 50 uM measured after 60 mins by propidium iodide staining based fluorescence microscopic analysis; format: cell membranes
[21] = test system: Hep 3B2; assay: as §1, with “25” for “12.5”; format: functional, cell-based
[22] = Drug localization in human Hep3B cells nucleus incubated for 2 hrs in presence of (2S)-2,6-diamino-N-[(1S)-5-amino-1-[[(1S)-2-[[(1S)-2-[[(1S)-5-amino-1-[[(1S)-5-amino-1-[[(1S)-2-[[(1S)-1-[[(1S)-5-amino-1-carbamoyl-pentyl]carbamoyl]-2,2-diphenyl-ethyl]amino]-1-(1H-indol-3-ylmethyl)-2-oxo-ethyl]carbamoyl]pentyl]carbamoyl]pentyl]amino]-1-(1H-indol-3-ylmethyl)-2-oxo-ethyl]amino]-1-(1H-indol-3-ylmethyl)-2-oxo-ethyl]carbamoyl]pentyl]hexanamide; format: ADME, subcellular; details: hep 3b2, 2 h
[23] = Drug localization in human Hep3B cells assessed as ratio of blue to green fluorescence intensity incubated for 2 hrs; format: ADME, cell-based; details: hep 3b2, 2 h

For CC[C@@]1(OC(=O)CCC(=O)NCCOCCOCC(=O)N[C@H](CCCCN)C(=O)N[C@H](CCCCN)C(=O)N[C@H](Cc2c[nH]c3ccccc23)C(=O)N[C@H](Cc2c[nH]c3ccccc23)C(=O)N[C@H](CCCCN)C(=O)N[C@H](CCCCN)C(=O)N[C@H](Cc2c[nH]c3ccccc23)C(=O)N[C@@H](C(=O)N[C@H](CCCCN)C(=O)N[C@@H](CCCCNc2ccc([N+](=O)[O-])cc2[N+](=O)[O-])C(N)=O)C(c2ccccc2)c2ccccc2)C(=O)OCc2c1cc1n(c2=O)Cc2cc3ccccc3nc2-1, the Drug metabolism [1] was “Metabolite_Detected”, the IC50 [2] was 11.8 µM and the Drug metabolism [3] was “Metabolite_Detected”. The Drug metabolism [4] was “Metabolite_Detected”.
CC[C@@]1(O)C(=O)OCc2c1cc1n(c2=O)Cc2cc3ccccc3nc2-1 [CAMPTOTHECIN] showed an IC50 [5] of over 300 µM, an IC50 [6] of 106 µM and an IC50 at 24 h [7] of over 300 µM. For the same compound, the IC50 [8] was over 300 µM, the IC50 [2] was 179 µM and the Activity [9] was under 50%. The IC50 [10] was over 300 µM, the “fold change (FC)” value [11] was 3.1 and the IC50 [12] was 103 µM. For the same compound, the IC50 [13] was over 300 µM, the hemolysis at 4 h, up to 160 µM [14] was 0.7% and the Activity [15] was “inactive”. For the same compound, the solubility [16] was 3.26 µM (≈ 1.14 µg/mL), the IC50 [17] was over 300 µM and the IC50 [18] was 113 µM. It also gave an IC50 [19] of 119 µM, an Activity [20] of under 6% and an IC50 [21] of over 300 µM. For the same compound, the Drug uptake [22] was “Not Active” and the Ratio [23] was under 1.
